The text below walks through data of US7132286B2, “Method for neural stem cell differentiation using valproate” (Psychiatric Genomics, Inc., priority 2001, dated 2006).

SMILES strings stand for the structures. Entries after “also recorded” stand apart in the source; their conditions may differ.

One series has as its system rat cortical stem cells. The series can be described thus: Differentiation of rat cortical stem cells into GABA expressing cells (GABA immunocytochemistry). The class given is cell-based. The note with it: 6 days valproate vs control. How it is done: Drug treatment. For immunofluorescence and Western analysis, cells were treated daily with either 0.5 mM of valproate (Sigma), 10 ng/ml of BDNF (R & D Systems), 20 ng/ml of NT-3 (R & D Systems), 1 nM 9cis retinoic acid (Sigma) or a dilution of NCM for 6 or 7 days. In some experiments valproate was also added with NCM and/or 9cis RA for 7 days. For human stem cell experiments, valproate (0.5 mM) or BDNF (25 ng/ml) was added for 9 days. For neurite outgrowth experiments, cells were treated for 1 day with 0.5 mM valproate or 50 ng/ml of BDNF. Where applicable, medium was changed every 2 days. After about 5–10 days, preferably on day 6 (i.e., after 6 days of drug exposure) the cells were fixed with a 4% solution of para-formaldehyde (PFA) in PBS, prepared as follows: Immunofluorescent staining and visualization. Cells were plated at 20,000 cells/well in poly-L-ornithine/fibronectin (1 mg/ml) coated 24-well plates. […] For immunofluorescence, 3 different black and white pictures were taken by field of interest with a digital camera CoolSnap Fx (Princeton) corresponding to the exposure of Cy2, Cy3 and Hoechst fluorescence. […] The percentage of neurons, astrocytes and GABAergic cells was determined by comparing the number of cells immunopositive for β-tubulin III, GFAP and GABA to the number of bis-benzamide stained nuclei (i.e., total cell number). […]

Series [1] deals with rat stem cells from ventral forebrain i.e. the lateral ganglionic eminence (LGE). The series can be described thus: Neuronal differentiation of rat stem cells from ventral forebrain (lateral ganglionic eminence). The format is cell-based. Conditions: data not shown. The method, then: Isolation of cortical and striatal stem cells. […] The abdomen of the rat was cleaned with 70% ethanol and the uterus was removed quickly and aseptically on the bench top.
Removal of meninges is not possible at this age, and no attempt was made to do so. If the dissected tissue was in large enough chunks and settle to the bottom of the tube, no centrifugation was performed. Alternatively, the tube was centrifuged at 1000 rpm for 5 minutes to pellet the tissue. Following centrifugation, the 15 ml tube containing the tissue was sprayed with 70% ethanol and taken into the sterile hood.
About 4–5 ml of the 6 ml of cells suspension was used for plating. […] This culture is designated P0 (passage 0).
The cultures were never permitted to reach more than 70% confluency. […] It is not expected that all cells in the culture will round up as there are several cell types in the culture at P0. The pH of the HBSS should be neutral at all times during this incubation.

Series [2] has as its system teratocarcinoma cell line NTera-2. The note with it: NTera-2 cells (Skladchikova et al.); cited from earlier work.
The conditions of series [3]: literature; cited from earlier work.

In the case of `CCCC(CCC)C(=O)O` [valproate, 2-Propylpentanoic acid], the “number and percentage of cells immuno-positive for GABA” value in the series on rat cortical stem cells is “dramatic increase in the number; also recorded: increase in the number of GABA-positive neurons”. The “percentage and number of neurons” value in series [1] is “increased the percentage and number of neurons”. Further, the “proliferation and retinoic acid-induced neuronal differentiation” value in series [2] is “inhibit the proliferation and block retinoic acid-induced neuronal differentiation”. Moreover, the teratogenic activity result in series [3] was “established human teratogen”.
